≈ marks a conversion by molar mass, not a printed value. Read-outs that look alike come from different tables or passages of the source.
Tests used:
Assay in all cases: Antifungal MIC/MLC (broth microdilution)
[1] = tested on: A. niger ATCC 16404; format: cell-based
Protocol: (§1) The antifungal activity of compound 1 was evaluated for a wide range of fungal species, covering yeasts and filamentous fungi, including dermatophytes. […] This antimicrobial effect was fungicidal, with minimal lethal concentrations (MLC) being equal to, or one or two-fold higher than the respective MIC. Twenty-three fungal strains were used in this study, including reference strains and clinical isolates of yeasts and filamentous fungi. Yeast strains included reference strains (ATCC—American Type Culture Collection and CECT—Colección Española de Cultivos Tipo) and clinical isolates: C. albicans ATCC 10231, Candida krusei ATCC 6258, C. albicans H37, C. albicans FF172, C. albicans FF176, C. albicans DSY294, C. albicans DSY296, C. glabrata DSY562, C. glabrata DSY565 and Cryptococcus neoformans CECT 1078. Filamentous fungi included Aspergillus fumigatus ATCC 240305, A. fumigatus C111, A. niger ATCC 16404, A. flavus F44, Fusarium solani FF125, F. oxysporum FF115, and dermatophytes Trichophyton rubrum FF5, T. mentagrophytes FF7, Microscoporum canis FF1 and Nannizzia gypsea FF3 (formerly Microsporum gypseum) and a species of genera Mucor, Lichetheimia and Scedosporium. Saprolegnia parasitica CBS 223.65, a reference strain of an oomycete fish pathogen, was also included. All microorganisms were kept in Sabouraud Dextrose Broth (SDB: BioMérieux, Marcy L'Etoile, France) plus glycerol (20%) at −80° C. The strains were kept in Sabouraud Dextrose Agar (SDA: BioMérieux, Marcy L'Etoile, France) slants and were sub-cultured in SDA before each test. S. parasitica was kept in Corn Meal Agar plates (CMA: BBL™ Corn Meal Agar, BD, Le Pont-de-Claix, France) and was sub-cultured in CMA before each experiment. C. albicans H37, was kindly provided by Cidilia Pina Vaz (CHSJ, Porto, Portugal) and C. albicans DSY294, C. albicans DSY296, C. glabrata DSY562, C. glabrata DSY565 were kindly provided by D. Sanglard (University of Lausanne, Switzerland). A stock solution of compound 1 (10 mg/mL), was prepared in dimethyl sulfoxide (DMSO 99%: Alfa Aesar, Kandel, Germany), kept at −20 degrees C., and freshly diluted in the appropriate culture media before each assay. In all experiments, in-test concentrations of DMSO were kept below 2%. Fluconazole (Alfa Aesar, Ward Hill, MA, USA) was tested as commercial antifungal.
(§2) Antifungal activity was evaluated by determining the MIC of compound 1 by the broth microdilution method, according to CLSI guidelines (reference documents M27-A3 for yeasts and M38-A2 for filamentous fungi). Briefly, cell or spore suspensions were prepared in RPMI-1640 broth medium (Biochrom, Berlin, Germany) buffered with 3-(N-morpholino)propane sulfonic acid (MOPS) (Sigma-Aldrich, St. Louis, MO, USA) (henceforth referred to as RPMI) from fresh cultures of the different strains of fungi. For yeasts, the inoculum was adjusted to 0.5-2.5×10^3 CFU/mL. For filamentous fungi, the inoculum was adjusted to 1-3×10^3 CFU/mL for dermatophytes, and 0.4-5×10^4 CFU/mL for all other strains. […] Sterility and growth controls were included in each assay. The 96-well flat-bottomed untreated polystyrene microtiter plates which were incubated for 48 h at 35° C., with the exception of Lichetheimia spp. which was incubated at 25° C. for 48 h, and the dermatophyte strains, which incubated for 5-7 days at 25° C. […] Voriconazole (kindly provided by Pfizer Ldt., UK) MIC for C. krusei ATCC 6258 was used as quality control and the assays were validated when the results obtained were within the recommended limits. The minimal lethal concentration (MLC) was determined by spreading 20 μL of culture collected from wells showing no visible growth on SDA plates. The MLC was determined as the lowest concentration showing complete growth inhibition after 48 h at 35 degrees C., 48 h at 25 degrees C. (Lichetheimia spp.) or 5-7 days at 25 degrees C. (dermatophytes). At least two independent assays were performed for all tested strains.

[2] = tested on: Lichtheimia spp.; format: cell-based
Protocol: as §1, §2

[3] = tested on: Fusarium oxysporum FF115; format: cell-based
Protocol: as §1, §2

[4] = tested on: Scedosporium spp.; format: cell-based
Protocol: as §1, §2

[5] = tested on: Aspergillus fumigatus ATCC 204305; format: cell-based
Protocol: as §1, §2

[6] = tested on: A. flavus F44; format: cell-based
Protocol: as §1, §2

[7] = tested on: Fusarium solani FF125; format: cell-based
Protocol: as §1, §2

[8] = tested on: Cryptococcus neoformans CECT 1078; format: cell-based
Protocol: as §1, §2

[9] = tested on: C. glabrata DSY562; format: cell-based
Protocol: as §1, §2

[10] = tested on: Mucor spp.; format: cell-based
Protocol: as §1, §2

[11] = tested on: C. glabrata DSY565; format: cell-based
Protocol: as §1, §2

[12] = tested on: T. mentagrophytes FF7; format: cell-based
Protocol: as §1, §2

[13] = tested on: C. krusei ATCC 6258; format: cell-based, Candida krusei
Protocol: as §1
(§3) Antifungal activity was evaluated by determining the MIC of compound 1 by the broth microdilution method, according to CLSI guidelines (reference documents M27-A3 for yeasts and M38-A2 for filamentous fungi). […] The minimal lethal concentration (MLC) was determined by spreading 20 μL of culture collected from wells showing no visible growth on SDA plates. The MLC was determined as the lowest concentration showing complete growth inhibition after 48 h at 35 degrees C., 48 h at 25 degrees C. […]

[14] = tested on: A. fumigatus C111; format: cell-based, Aspergillus fumigatus; details: A. fumigatus C111, resistant to azoles
Protocol: as §1, §3

[15] = A. niger ATCC 16404, intrinsically resistant to fluconazole
[16] = Lichtheimia spp., intrinsically resistant to fluconazole
[17] = Fusarium oxysporum FF115, intrinsically resistant to fluconazole
[18] = Aspergillus fumigatus ATCC 204305, intrinsically resistant to fluconazole
[19] = A. flavus F44, intrinsically resistant to fluconazole
[20] = Fusarium solani FF125, intrinsically resistant to fluconazole
[21] = Mucor spp., intrinsically resistant to fluconazole
[22] = C. glabrata DSY565, resistant to fluconazole or azoles
[23] = C. krusei ATCC 6258, intrinsically resistant to fluconazole

## OC(Cn1cncn1)(Cn1cncn1)c1ccc(F)cc1F [Fluconazole, reference compound]
[1]; [15]
  MLC: >128 µg/mL
[1]; Aspergillus niger, ATCC16404, read-out: MIC
  MIC: ≥ 128 µg/mL
[2]; [16]
  MLC: >128 µg/mL
[2]; Lichtheimia, read-out: MIC
  MIC: 64 µg/mL (≈ 209 µM)
[3]; [17]
  MLC: >128 µg/mL
[3]; Fusarium oxysporum, FF115, read-out: MIC
  MIC: 64 µg/mL (≈ 209 µM)
[4]
  MLC: 16 µg/mL (≈ 52.2 µM)
[4]; read-out: MIC
  MIC: 4 µg/mL (≈ 13.1 µM)
[5]; [18]
  MLC: >128 µg/mL
[5]; Aspergillus fumigatus, ATCC204305, read-out: MIC
  MIC: ≥ 128 µg/mL
[6]; [19]
  MLC: >128 µg/mL
[6]; Aspergillus flavus, F44, read-out: MIC
  MIC: 128 µg/mL (≈ 418 µM)
[7]; [20]
  MLC: >128 µg/mL
[7]; Fusarium solani, FF125, read-out: MIC
  MIC: ≥ 128 µg/mL
[8]
  MLC: >32 µg/mL
[8]; CECT1078, read-out: MIC
  MIC: 8 µg/mL (≈ 26.1 µM)
[9]
  MLC: >128 µg/mL
[9]; Nakaseomyces glabratus, read-out: MIC
  MIC: 4 µg/mL (≈ 13.1 µM)
[10]; [21]
  MLC: >128 µg/mL
[10]; Mucor, read-out: MIC
  MIC: > 128 µg/mL
[11]; [22]
  MLC: >128 µg/mL
[11]; Nakaseomyces glabratus, DSY565
  MIC: 128 µg/mL (≈ 418 µM)
[12]
  MLC: 32 µg/mL (≈ 104 µM)
[12]; Trichophyton mentagrophytes, read-out: MIC
  MIC: 8 µg/mL (≈ 26.1 µM)
[13]; [23]
  MLC: >128 µg/mL
[13]; Pichia kudriavzevii, ATCC6258, read-out: MIC
  MIC: 32 µg/mL (≈ 104 µM)
[14]
  MLC: >128 µg/mL
[14]; Aspergillus fumigatus, read-out: MIC
  MIC: ≥ 128 µg/mL

## C[C@H](CCC(=O)NCCN)[C@H]1CC[C@H]2[C@@H]3CC[C@@H]4C[C@H](O)CC[C@]4(C)[C@H]3C[C@H](O)[C@]12C [Compound 1, (R)—N-(2-aminoethyl)-4-((3R,5R,8R,9S,10S,12S,13R,14S,17R)-3,12-dihydroxy-10,13-dimethylhexadecahydro-1H-cyclopenta[a]phenanthren-17-yl) pentanamida]
[1]; [15]
  MIC: 64 µg/mL (≈ 147 µM)
  MLC: 128 µg/mL (≈ 294 µM)
[2]; [16]
  MIC: 64 µg/mL (≈ 147 µM)
  MLC: >128 µg/mL
[3]; [17]
  MIC: 128 µg/mL (≈ 294 µM)
  MLC: ≥128 µg/mL
[4]
  MIC: 64 µg/mL (≈ 147 µM)
  MLC: 128 µg/mL (≈ 294 µM)
[5]; [18]
  MIC: 128 µg/mL (≈ 294 µM)
  MLC: ≥128 µg/mL
[6]; [19]
  MIC: ≥128 µg/mL
  MLC: >128 µg/mL
[7]; [20]
  MIC: 64 µg/mL (≈ 147 µM)
  MLC: >128 µg/mL
[8]
  MIC: 32 µg/mL (≈ 73.6 µM)
  MLC: 64 µg/mL (≈ 147 µM)
[9]
  MIC: 64 µg/mL (≈ 147 µM)
  MLC: 64 µg/mL (≈ 147 µM)
[10]; [21]
  MIC: 64 µg/mL (≈ 147 µM)
  MLC: 64 µg/mL (≈ 147 µM)
[11]; [22]
  MIC: 64 µg/mL (≈ 147 µM)
  MLC: 64 µg/mL (≈ 147 µM)
[12]
  MIC: 32 µg/mL (≈ 73.6 µM)
  MLC: 64 µg/mL (≈ 147 µM)
[13]; [23]
  MIC: 64 µg/mL (≈ 147 µM)
  MLC: 64 µg/mL (≈ 147 µM)
[14]
  MIC: 128 µg/mL (≈ 294 µM)
  MLC: >128 µg/mL

— US20250002450A1, “CATIONIC STEROID COMPOUNDS, METHOD OF OBTAINING THEREOF, FORMULATIONS COMPRISING THEREOF AND THEIR USES” (UNIVERSIDADE DO PORTO, priority 2021, published 2025)
